Data from patent US9902986B2, “Enterobactin conjugates and uses thereof” (Massachusetts Institute of Technology, priority 2013, dated 2018).
“Also recorded” adds a separate entry of the source.

Columns and labels:
[1] = system: E. coli K-12; experiment: Antimicrobial activity assay, E. coli K-12; type: cell-based, Escherichia coli; details: inhibition attributed to iron deprivation
Procedure: (§1) Overnight cultures of the bacterial strains were prepared by inoculating 5 mL of LB with the bacterial freezer stocks and the cultures were incubated at 37° C. in a tabletop incubator shaker set at 150 rpm. The overnight culture grew to saturation and was diluted 1:100 into 5 mL of fresh LB medium containing DP (200 μM) and incubated at 37° C. with shaking at 150 rpm until OD600 reached 0.6. The cultures were subsequently diluted to an OD600 value of 0.001 in 50% MHB medium (11.5 g/L) with or without DP (200 μM). No antibiotic marker was included in these cultures. A 90-μL aliquot of the diluted culture was combined with a 10-μL aliquot of a 10× solution of the tested compounds in a 96-well plate, which was wrapped in […] and incubated at 30° C. with shaking at 150 rpm for 19 h. Bacterial growth was determined by measuring OD600 using a BIOTEK SYNERGY HT plate reader. Each well condition was prepared in duplicate, and at least three independent replicates were conducted on different days. The resulting mean OD600 are reported and the error bars are the standard deviation.
In an exemplary experiment, antibacterial activities of the conjugates were tested against E. coli K-12 in 50% MHB at 30° C., t=19 h. 2,2′-dipyridyl (DP, 200 μM) was added to provide conditions of iron limitation.

[2] = system: E. coli CFT073; experiment: Antimicrobial activity assay, E. coli CFT073; type: cell-based, Escherichia coli; details: Fe(III)-loaded versus apo conjugates, 50% MHB, 200 μM DP, 30° C., t=19 h
Procedure: as §1
In another exemplary experiment, antibacterial activities of the conjugates were tested against E. coli CFT073 in 50% MHB at 30° C., t=19 h. DP (200 μM) was added to provide conditions of iron limitation.
In another exemplary experiment, antibacterial activities of Fe(III)-loaded or apo Ent-β-lactam conjugates (Ent-Amp and Ent-Amx) and their glucosylated derivatives (MGE-Amp, MGE-Amx, DGE-Amp, and DGE-Amx) against the uropathogenic strain E. coli CFT073 were tested in 50% MHB, 30° C., t=19 h. 2,2′-dipyridyl (DP, 200 μM) was added to provide conditions of iron limitation.

[3] = system: uropathogenic E. coli and non-pathogenic E. coli; experiment: Mixed culture assays (summary), uropathogenic and non-pathogenic E. coli; type: cell-based, Escherichia coli; details: uropathogenic with non-pathogenic E. coli
Source text: No antibiotic marker was included in these cultures.

[4] = system: E. coli UTI89; experiment: Competition assay with native siderophores, E. coli UTI89; type: cell-based, Escherichia coli; details: conjugate 100 nM, varied Ent, MGE or DGE, 50% MHB, 200 μM DP, 30° C., t=19 h
Procedure: Ent was synthesized following a literature procedure^55 and stored as DMSO stock solution at −20° C. MGE and DGE were prepared from Ent using MceC and IroB as described for MGE-PEG3-N3 and DGE-PEG3-N3.
(§2) In an exemplary experiment, select conjugates (Ent-Amp, MGE-Amp, and DGE-Amp) with select native siderophores (Ent, MGE, and DGE) were tested against the uropathogenic strain E. coli UTI89 in 50% MHB, t=19 h, 30° C. […] The concentration of the conjugates was fixed at 100 nM, and the concentration of the native siderophores was varied. […] These observations indicate that Ent, MGE, Ent-Amp, and MGE-Amp may enter via both FepA and IroN with different efficiency, but DGE and DGE-Amp may only enter via IroN.
as §2, with “In another” for “In an”, “100 nM” for “100 nM,”

[5] = system: various E. coli strains; experiment: Antibacterial activity against a panel of E. coli strains; type: cell-based, Escherichia coli; details: 6 strains of E. coli (K-12, B, H9049, 25922, UTI89, CFT073)
Procedure: as §1
Ampicillin and amoxicillin are β-lactam antibiotics that have periplasmic targets in Gram-negative bacteria and inhibit cell wall biosynthesis. The antibacterial activity of Ent-ampicillin and Ent-amoxicillin conjugates 44 and 45 was evaluated in vitro against a panel of Gram-negative and positive-bacteria.
Select Ent-β-lactam conjugates (Ent-Amp and Ent-Amx) and their glucosylated derivatives (MGE-Amp, MGE-Amx, DGE-Amp, and DGE-Amx) were tested against 6 strains of E. coli. Four of them are non-pathogenic strains, namely K-12, B, H9049, and 25922, and the other two are uropathogenic clinical isolates, namely UTI89 and CFT073.

[6] = system: Salmonella enterica serovar Typhimurium (STM) IR715; experiment: Antibacterial activity assay, Salmonella Typhimurium; type: cell-based; details: 50% MHB, 100 μM 2,2′-dipyridyl, 30° C., t=19 h
Procedure: FIGS. 12A and 12B show exemplary antibacterial activities of Ent-Amp, Ent-Amx, MGE-Amp, MGE-Amx, DGE-Amp, and DGE-Amx against Salmonella enterica serovar Typhimurium (STM) IR715 (50% MHB with 100 μM 2,2′-dipyridyl to provide conditions of iron limitation, 30° C., t=19 h). (FIG. 12A) Antibacterial activity of Amp and the Amp-containing conjugates (Ent-Amp, MGE-Amp, and DGE-Amp). […] (FIG. 12B) Antibacterial activity of Amx and the Amx-containing conjugates (Ent-Amx, MGE-Amx, and DGE-Amx).

[7] = system: E. coli CFT073; experiment: Antimicrobial activity assay in the presence of lipocalin 2; type: cell-based, Escherichia coli; details: conjugate 100 nM, lcn2 1 μM, M9 minimal media, 37° C., 24 h
Procedure: The bacterial cultures were grown in modified M9 minimal medium (Blango, M. G.; Ott, E. M.; Erman, A.; Veranic, P.; Mulvey, M. A. Forced Resurgence and Targeting of Intracellular Uropathogenic Escherichia coli Reservoirs. PLoS One 2014, 9, e93327-e93335) (Na2HPO4 6.8 g/L, KH2PO4 3 g/L, NaCl 0.5 g/L, NH4Cl 1 g/L, 0.4% glucose, 2 mM MgSO4, 0.1 mM CaCl2, 0.2% casein amino acids, and 16.5 μg/mL of thiamine) overnight. […] The cultures were serially diluted to an OD600 value of 0.00001 in fresh modified M9 minimal medium. Lipocalin 2 (Lcn2) was diluted into PBS buffer to a concentration of 20 μM upon arrival and frozen at −20° C. until use. Bovine serum albumin (BSA, Sigma-Aldrich) was prepared in PBS buffer to achieve a concentration of 20 μM. […] The bacterial growth was determined by measuring OD600 using the plate reader. […] The resulting mean OD600 was reported, and the error bars were the standard deviation. […] In contrast, Lcn2 had no effect of the antibacterial activity of MGE-Amp, MGE-Amx, DGE-Amp, or DGE-Amx.

[8] = system: E. coli CFT073; experiment: Competition assay with native siderophores, E. coli CFT073; type: cell-based, Escherichia coli; details: conjugate 100 nM, varied Ent, MGE or DGE, 50% MHB, 200 μM DP, 30° C., t=19 h
Procedure: These assays were performed following the general procedure described herein except that varying concentrations of Ent, MGE, or DGE, each of which was unmodified, were mixed with Ent-Amp, Ent-Amx, MGE-Amp, MGE-Amx, DGE-Amp, or DGE-Amx. Ent was synthesized following a literature procedure^55 and stored as DMSO stock solution at −20° C. MGE and DGE were prepared from Ent using MceC and IroB as described for MGE-PEG3-N3 and DGE-PEG3-N3.
(§3) In another exemplary experiment, select conjugates (Ent-Amp, MGE-Amp, and DGE-Amp) with select native siderophores (Ent, MGE, and DGE) were tested against the uropathogenic strain E. coli CFT073 in 50% MHB, t=19 h, 30° C. 2,2′-dipyridyl (DP, 200 μM) was added to provide conditions of iron limitation. The concentration of the conjugates was fixed at 100 nM and the concentration of the native siderophores was varied.
as §3, with “(Ent-Amx, MGE-Amx,” for “(Ent-Amp, MGE-Amp,”, “DGE-Amx)” for “DGE-Amp)”, “DP (200” for “2,2′-dipyridyl (DP, 200”

[9] = system: human colon epithelial T84 cells; experiment: Cytotoxicity study using MTT; details: 24 h, concentrations up to 10 μM
Procedure: Colon epithelial T84 cell line (purchase from ATCC) were grown in DMEM/F12 medium containing penicillin (100 I.U./mL) and streptomycin (100 μg/mL). The cells were passed and plated in 96-well flat-bottom plates ˜16 h before treatment. Each well contained 90 µL of the cell culture at a density of 10^5 cells/mL. Stock solutions of the tested conjugates (e.g., Ent-Amp) were prepared in sterile filtered 10% DMSO/water, and 10 μL of the each solution was added to each well. The plate was incubated at 37° C. and under 5% CO2 for 24 h and 20 μL of MTT (5 mg/mL in sterile PBS) was added to each well. The plate was incubated at 37° C. for another 4 h, and the supernatant was removed from each well. DMSO (100 μL) was added to the wells to afford a purple solution, and the absorbance at 550 nm was recorded by using a plate reader. Blank readings were generated by wells that only contain the growth medium but no cells. The assay was repeated in three independent trials, and the resulting mean and standard errors are reported. […] Ent-Amp, Ent, and Amp were incubated with human colon epithelial T84 cells for 24 h.
In another exemplary experiment, the human colon epithelial T84 cell line was purchased from ATCC and cultured in 1:1 DMEM/F12 medium with 10% fetal bovine serum, 1% penicillin, and streptomycin (v/v, ATCC). The cells were grown to approximately 95% confluency and treated with 3 mL of trypsin-EDTA (Corning). A 12-mL portion of fresh medium was added to the detached cells, and the T84 cell suspension was centrifuged (600 rpm×5 min, 37° C.). The supernatant was discarded, and the cell pellet was resuspended in 6 mL of the fresh culture media. The concentration of cells was quantified by using a manual hemocytometer (VWR International) and adjusted to 1×10^5 cells/mL. A 90-μL aliquot of T84 cells were then added to 96-well plates and incubated at 37° C. and 5% CO2 for 24 h. […] DMSO (100 μL) was added to each well and the absorbance at 550 nm was recorded by using a plate reader. Blank readings were recorded on wells that only contained the medium. […]

CC1(C)SC2C(NC(=O)C(NC(=O)CCCc3cn(CCOCCOCCOCCNC(=O)c4cc(O)c(O)c(C(=O)NC5COC(=O)C(NC(=O)c6cc(C7OC(CO)C(O)C(O)C7O)cc(O)c6O)COC(=O)C(NC(=O)c6cc(C7OC(CO)C(O)C(O)C7O)cc(O)c6O)COC5=O)c4)nn3)c3ccc(O)cc3)C(=O)N2C1C(=O)O (centres unmarked) [DGE-Amx]
concentrations at which E. coli K-12 was inhibited [1]: micromolar concentrations | effect of preloading Fe(III) on antibacterial activity [2]: no effect | strain-specific growth inhibition in the mixed culture assays [3]: specifically inhibited the growth of the uropathogenic E. coli | attenuation of antibacterial activity by native siderophores [4]: attenuated by Ent, MGE, or DGE | antibacterial activity against uropathogenic compared to non-pathogenic E. coli [5]: greater antibacterial activity against the uropathogenic E. coli compared to non-pathogenic E. coli | antibacterial activity relative to the unmodified antibiotic [6]: enhanced antibacterial activity relative to unmodified Amx | effect of lipocalin-2 (lcn2) on antibacterial activity [7]: unaffected; also recorded: no effect; also recorded: not attenuated | attenuation of antibacterial activity by native siderophores [8]: attenuated by Ent, MGE, or DGE

CC1(C)S[C@@H]2[C@H](NC(=O)[C@H](N)c3ccccc3)C(=O)N2[C@H]1C(=O)O [Amp, Ampicillin]
effect on viability of T84 cells (MTT) [9]: did not affect the viability of human cells significantly

CC1(C)SC2C(NC(=O)C(NC(=O)CCCc3cn(CCOCCOCCOCCNC(=O)c4cc(O)c(O)c(C(=O)NC5COC(=O)C(NC(=O)c6cc(C7OC(CO)C(O)C(O)C7O)cc(O)c6O)COC(=O)C(NC(=O)c6cccc(O)c6O)COC5=O)c4)nn3)c3ccc(O)cc3)C(=O)N2C1C(=O)O (centres unmarked) [MGE-Amx]
concentrations at which E. coli K-12 was inhibited [1]: micromolar concentrations | effect of preloading Fe(III) on antibacterial activity [2]: no effect | strain-specific growth inhibition in the mixed culture assays [3]: specifically inhibited the growth of the uropathogenic E. coli | attenuation of antibacterial activity by native siderophores [4]: attenuated by Ent, MGE, or DGE | antibacterial activity against uropathogenic compared to non-pathogenic E. coli [5]: greater antibacterial activity against the uropathogenic E. coli compared to non-pathogenic E. coli | antibacterial activity relative to the unmodified antibiotic [6]: enhanced antibacterial activity relative to unmodified Amx | effect of lipocalin-2 (lcn2) on antibacterial activity [7]: unaffected; also recorded: no effect; also recorded: not attenuated | attenuation of antibacterial activity by native siderophores [8]: attenuated by Ent, MGE, or DGE
